Test results: ChEMBL document CHEMBL1201862, “PubChem BioAssay data set” (2004)
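Each compound was tested at five concentrations against cells in 96-well plates for 48 hours. GI50 is the concentration that inhibits growth by half.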 Active and inactive are the calls of the source. Cut-off read from the data, not from the text of the source: active = GI50 up to about 1.1 µM and inactive = higher.

What was measured:
Assay in all cases: NCI tumour cell line growth inhibition, 48 h
OVCAR-3 = system: OVCAR-3
SF-539 = system: SF-539
SW-620 = system: SW-620
OVCAR-8 = system: OVCAR-8
DLD-1 = system: DLD-1
SF-268 = system: SF-268
DU-145 = system: DU-145
RXF 393 = system: RXF 393
SR = system: SR
EKVX = system: EKVX
K562 = system: K562
MDA-N = system: MDA-N
CCRF-CEM = system: CCRF-CEM
UO-31 = system: UO-31
SF-295 = system: SF-295
KM12 = system: KM12
SK-MEL-2 = system: SK-MEL-2
SK-OV-3 = system: SK-OV-3
T47D = system: T47D
A498 = system: A498
MDA-MB-231 = system: MDA-MB-231
HCC 2998 = system: HCC 2998
NCI-H23 = system: NCI-H23
SNB-75 = system: SNB-75
CAKI-1 = system: CAKI-1
RXF 631 = system: RXF 631
SK-MEL-28 = system: SK-MEL-28
A549 = system: A549
NCI-H522 = system: NCI-H522
NCI-H460 = system: NCI-H460
M19-MEL = system: M19-MEL
HL-60 = system: HL-60
OVCAR-5 = system: OVCAR-5
HCT-116 = system: HCT-116
MDA-MB-435 = system: MDA-MB-435
IGROV-1 = system: IGROV-1
NCI-H226 = system: NCI-H226
ACHN = system: ACHN
NCI/ADR-RES = system: NCI/ADR-RES
MOLT-4 = system: MOLT-4
UACC-62 = system: UACC-62
UACC-257 = system: UACC-257
DMS-273 = system: DMS-273
XF498 = system: XF498
COLO 205 = system: COLO 205
SK-MEL-5 = system: SK-MEL-5
Hs-578T = system: Hs-578T
SNB-19 = system: SNB-19
DMS-114 = system: DMS-114
HCT-15 = system: HCT-15
PC-3 = system: PC-3
RPMI-8226 = system: RPMI-8226
SNB-78 = system: SNB-78
U-251 = system: U-251
786-0 = system: 786-0
LOX IMVI = system: LOX IMVI
HT-29 = system: HT-29
M14 = system: M14
LXFL 529 = system: LXFL 529
HOP-18 = system: HOP-18
HOP-62 = system: HOP-62
Malme-3M = system: Malme-3M
HOP-92 = system: HOP-92
BT-549 = system: BT-549
OVCAR-4 = system: OVCAR-4
KM-20L2 = system: KM-20L2
SN12C = system: SN12C
TK-10 = system: TK-10
MCF7 = system: MCF7

## CC(=O)O[C@H]1C(=O)[C@@]2(C)C(C(OC(=O)c3ccccc3)[C@]3(O)C[C@H](OC(=O)C(OC(=O)CCCC(=O)NCCCN(C)C)C(NC(=O)c4ccccc4)c4ccccc4)C(C)=C1C3(C)C)C1(OC(C)=O)COC1C[C@@H]2O (some centres undefined)
OVCAR-3
  GI50: < 10 nM (active)
SF-539
  GI50: < 10 nM (active)
SW-620
  GI50: < 10 nM (active)
OVCAR-8
  GI50: < 10 nM (active)
DLD-1
  GI50: 19.4 nM (active)
SF-268
  GI50: 10.9 nM (active)
DU-145
  GI50: 10.5 nM (active)
RXF 393
  GI50: 17.1 nM (active)
SR
  GI50: < 10 nM (active)
EKVX
  GI50: 262 nM (active)
K562
  GI50: < 10 nM (active)
MDA-N
  GI50: < 10 nM (active)
CCRF-CEM
  GI50: < 10 nM (active)
UO-31
  GI50: 1020 nM (active)
SF-295
  GI50: 20 nM (active)
KM12
  GI50: < 10 nM (active)
SK-MEL-2
  GI50: < 10 nM (active)
SK-OV-3
  GI50: 14.1 nM (active)
T47D
  GI50: 149 nM (active)
A498
  GI50: 60.7 nM (active)
MDA-MB-231
  GI50: < 12.5 nM (active)
HCC 2998
  GI50: < 10 nM (active)
NCI-H23
  GI50: < 10 nM (active)
SNB-75
  GI50: < 10 nM (active)
CAKI-1
  GI50: 859 nM (active)
RXF 631
  GI50: 35.5 nM (active)
SK-MEL-28
  GI50: < 10 nM (active)
A549
  GI50: < 10 nM (active)
NCI-H522
  GI50: < 10 nM (active)
NCI-H460
  GI50: < 10 nM (active)
M19-MEL
  GI50: < 10 nM (active)
HL-60
  GI50: < 10 nM (active)
OVCAR-5
  GI50: < 13.9 nM (active)
HCT-116
  GI50: < 10 nM (active)
MDA-MB-435
  GI50: < 10 nM (active)
IGROV-1
  GI50: 13.8 nM (active)
NCI-H226
  GI50: 495 nM (active)
ACHN
  GI50: 652 nM (active)
NCI/ADR-RES
  GI50: 5020 nM (inactive)
MOLT-4
  GI50: < 10 nM (active)
UACC-62
  GI50: < 10 nM (active)
UACC-257
  GI50: 14.3 nM (active)
DMS-273
  GI50: < 10 nM (active)
XF498
  GI50: < 10 nM (active)
COLO 205
  GI50: < 10 nM (active)
SK-MEL-5
  GI50: < 10 nM (active)
Hs-578T
  GI50: < 10 nM (active)
SNB-19
  GI50: 15.2 nM (active)
DMS-114
  GI50: < 10 nM (active)
HCT-15
  GI50: 406 nM
PC-3
  GI50: < 10 nM (active)
RPMI-8226
  GI50: < 10 nM (active)
SNB-78
  GI50: 2490 nM (inactive)
U-251
  GI50: < 10 nM (active)
786-0
  GI50: 13.4 nM (active)
LOX IMVI
  GI50: < 10 nM (active)
HT-29
  GI50: < 10 nM (active)
M14
  GI50: < 10 nM (active)
LXFL 529
  GI50: < 10 nM (active)
HOP-18
  GI50: 916 nM (active)
HOP-62
  GI50: 16 nM (active)
Malme-3M
  GI50: < 10 nM (active)
HOP-92
  GI50: 2190 nM (inactive)
BT-549
  GI50: 10.1 nM (active)
OVCAR-4
  GI50: 8710 nM (inactive)
KM-20L2
  GI50: < 10 nM (active)
SN12C
  GI50: < 12.2 nM (active)
TK-10
  GI50: 42.5 nM (active)
MCF7
  GI50: < 10 nM (active)
